The values that follow come from US8637523B2, “Compounds for the reduction of beta-amyloid production” (Bristol-Myers Squibb Company, priority 2010, dated 2014).

Values joined by “and” are separate entries in the source; they are usually repeats but may differ in a detail not shown here. Equal values may be shown once. Read-outs that look alike come from different tables or passages of the source.

Usually IC50 stands for the concentration that gives 50% inhibition.

The conditions of series [1]: from CC(C)(C)OC(=O)N(CCOc1cc(N)ccc1C#N)CCc1nc(Cl)nc2c1CCC2c1ccc(F)cc1; cn_pd bond; 13-membered ring; Pd(OAc)2/Xantphos/Cs2CO3; 1,4-dioxane; 6.0 mM; 110.0 °C.
Another series has as its system Aβ42. As to the kind of experiment: Cellular assay for inhibition of Aβ1-42 production (H4 APP751 SWE clone 8.20). The settings on record: H4 APP751 SWE clone 8.20 cells, 19 h incubation. The series is classed as cell-based. The method, boiled down: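 Secreted peptide was quantified with a two-antibody homogeneous format combining Wallac-labelled 565, which recognises the Aβ42 end, and APC-labelled 26D6 at 0.8 and 75 ng/well respectively. Antibodies were diluted in 40 mM Tris-HCl, pH 7.4, 0.2% BSA and left overnight at 4 °C after a 19 h compound incubation.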

Where [2] appears, read: unit inferred, read-out: Activity Rating (Aβ42 cellular IC50), numeric value.
Setting [3] is: read-out: Activity Rating (Aβ42 cellular IC50), class symbol.
[4] abbreviates: 19 h, read-out: Activity Rating (Aβ42 cellular IC50), class symbol.

In the case of `Clc1cn(-c2ccc3cc2OC/C=C/CCNc2nc(nc4c2CCC4c2ccccc2)N3)cn1` (centres unmarked), the ring closure, yield after HPLC (rcm bond, 14-membered ring, Hoveyda-Grubbs II, 1,2-dichloroethane, 0.975 mM, 100.0 °C) was determined as 27.7%.

In the case of `CN1Cc2c(nc3nc2N(C)CC=CCOc2cc(ccc2C#N)N3)C(c2ccc(F)cc2)C1` (racemic), the ring closure, yield after HPLC (from C=CCOc1cc(Nc2nc3c(c(N(C)CC=C)n2)CN(C)CC3c2ccc(F)cc2)ccc1C#N, rcm bond, 13-membered ring, Hoveyda-Grubbs II, 1,2-dichloroethane, 3.0 mM, 90.0 °C) stood at 4.95%.

Take `Cc1ncn(-c2ccc3cc2OCC(O)CCNc2nc(nc4c2CCC4c2ccc(F)cc2)N3)n1` (mixture of isomers): under “from Cc1ncn(-c2ccc(N)cc2OCC(O)CCNc2nc(Cl)nc3c2CCC3c2ccc(F)cc2)n1, cn_pd bond, 13-membered ring, Pd(OAc)2/Xantphos/Cs2CO3, dioxane, 100.0 mM, 100.0 °C”, the ring closure, yield after HPLC worked out at 24.4%.

As to `Clc1cn(-c2ccc3cc2OCCCNC2=NC(=N3)NC3=C2CCC3c2ccccc2)cn1` (centres unmarked), where the note is “cn_pd bond, 12-membered ring, Pd(dba)3 (so in the source)/Xantphos/Cs2CO3, 1,4-dioxane, 30.7 mM, 110.0 °C”, the ring closure, yield after HPLC was 2.83% and 1.88%.

`CC(C)(C)OC(=O)N1CCOc2cc(ccc2C#N)Nc2nc(c3c(n2)C(c2ccc(F)cc2)CC3)CC1` (centres unmarked) displayed a ring closure, isolated yield in series [1] of 21.4%.

Regarding `Cc1ncn(-c2ccc3cc2OC/C=C/CNc2nc(nc4c2CCC4c2ccc(F)cc2F)N3)n1` (centres unmarked) [Example 52A, (11E)-18-(2,4-difluorophenyl)-7-(3-methyl-1H-1,2,4-triazol-1-yl)-10,13,14,16,17,18-hexahydro-15,2-(azeno)-8,4-(metheno)cyclopenta[h][1,6,10,12]oxatriazacycloheptadecine], the 50% inhibitory concentration (IC50) with Aβ42 (setting [2]) is 11 nM.

For `Cc1ncn(-c2ccc3cc2OCC=CCCc2nc(nc4c2CCC4c2ccccc2)N3)n1` (centres unmarked) [Example 59A, (11E)-7-(3-methyl-1H-1,2,4-triazol-1-yl)-18-phenyl-10,13,14,16,17,18-hexahydro-15,2-(azeno)-8,4-(metheno)cyclopenta[h][1,10,12]oxadiazacycloheptadecine], in the series on Aβ42 (setting [3]), the IC50 was below 10 nM.

`N#Cc1ccc2cc1OCC=CCNc1nc(nc3c1CCC3c1ccc(F)cc1F)N2` (centres unmarked) [Example 24B, (11Z)-7-cyano-18-(2,4-difluorophenyl)-10,13,14,16,17,18-hexahydro-15,2-(azeno)-8,4-(metheno)cyclopenta[h][1,6,10,12]oxatriazacycloheptadecine]: the IC50 in the series on Aβ42 (setting [2]) was determined as 43 nM.

With `Cc1ncn(-c2ccc3cc2OCCCCN(C)c2nc(nc4c2CCC4c2ccccc2)N3)n1` (centres unmarked) [Example 50B, 14-methyl-7-(3-methyl-1H-1,2,4-triazol-1-yl)-18-phenyl-10,11,12,13,14,16,17,18-octahydro-15,2-(azeno)-8,4-(metheno)cyclopenta[h][1,6,10,12]oxatriazacycloheptadecine], the 50% inhibitory concentration (IC50) in the series on Aβ42 (setting [4]) lay within 10 to 100 nM.

“(11Z)-18-(2,4-difluorophenyl)-7-(3-methyl-1H-1,2,4-triazol-1-yl)-10,13,14,16,17,18-hexahydro-15,2-(azeno)-8,4-(metheno)cyclopenta[h][1,6,10,12]oxatriazacycloheptadecine [Example 51B]”: the IC50 with Aβ42 (setting [3]) was 10 to 100 nM.

On to `N#Cc1ccc2cc1OC/C=C/CCc1nc(nc3c1CCC3c1ccccc1)N2` (centres unmarked) [Example 37B, (11E)-7-cyano-18-phenyl-10,13,14,16,17,18-hexahydro-15,2-(azeno)-8,4-(metheno)cyclopenta[h][1,10,12]oxadiazacycloheptadecine], for which, in the series on Aβ42 (setting [3]), the IC50 was in the range of 10 to 100 nM.

With `Cc1ncn(-c2ccc3cc2OC/C=C\CNc2nc(nc4c2CCC4c2ccc(F)cc2)N3)n1` (centres unmarked) [Example 45B, (11Z)-18-(4-fluorophenyl)-7-(3-methyl-1H-1,2,4-triazol-1-yl)-10,13,14,16,17,18-hexahydro-15,2-(azeno)-8,4-(metheno)cyclopenta[h][1,6,10,12]oxatriazacycloheptadecine], the 50% inhibitory concentration (IC50) in the series on Aβ42 (setting [3]) is 10 to 100 nM.

For `Clc1cn(-c2ccc3cc2OCCCCNc2nc(nc4c2CCC4c2ccccc2)N3)cn1` (centres unmarked) [Example 12B, 7-(4-chloro-1H-imidazol-1-yl)-18-phenyl-10,11,12,13,14,16,17,18-octahydro-15,2-(azeno)-8,4-(metheno)cyclopenta[h][1,6,10,12]oxatriazacycloheptadecine], the IC50 with Aβ42 (setting [3]) fell in the range of 10 to 100 nM.

With `Clc1cn(-c2ccc3cc2OCC=CCCc2nc(nc4c2CCC4c2ccccc2)N3)cn1` (centres unmarked) [Example 17B, (11E)-7-(4-chloro-1H-imidazol-1-yl)-18-phenyl-10,13,14,16,17,18-hexahydro-15,2-(azeno)-8,4-(metheno)cyclopenta[h][1,10,12]oxadiazacycloheptadecine], the IC50 in the series on Aβ42 (setting [3]) was in the range of 10 to 100 nM.

Regarding `CC1(c2ccc(F)cc2)CCc2c3nc(nc21)Nc1ccc(C#N)c(c1)OC/C=C\CN3` (centres unmarked) [Example 69, (11Z)-7-cyano-18-(4-fluorophenyl)-18-methyl-10,13,14,16,17,18-hexahydro-15,2-(azeno)-8,4-(metheno)cyclopenta[h][1,6,10,12]oxatriazacycloheptadecine], the IC50 in the series with Aβ42 (setting [2]) stood at 120 nM.

As to `N#Cc1ccc2cc1OCCCCCc1nc(nc3c1CCC3c1ccccc1)N2` (centres unmarked) [Example 38B, 7-cyano-18-phenyl-10,11,12,13,14,16,17,18-octahydro-15,2-(azeno)-8,4-(metheno)cyclopenta[h][1,10,12]oxadiazacycloheptadecine], in the series on Aβ42 (setting [4]), the IC50 is 100 to 1000 nM.

“(11Z)-18-(2,4-difluorophenyl)-7-(3-methyl-1H-1,2,4-triazol-1-yl)-10,13,14,16,17,18-hexahydro-15,2-(azeno)-8,4-(metheno)cyclopenta[h][1,6,10,12]oxatriazacycloheptadecine [Example 51A]”: the concentration for half-maximal inhibition (IC50) in the series with Aβ42 (setting [3]) was below 10 nM.
